Assay results as given in patent US20060100188A1, “Treatment methods” (priority 2004, published 2006).

Columns and labels:
[1] = tested on: DAOY human glioma cells (high MGMT level); assay: Colony formation assay, DAOY cells; format: cell-based; details: 4-day cycle
Experimental: (§1) As detailed below, DAOY human glioma cells (high MGMT level), A375 human melanoma cells (high MGMT level), and LOX human melanoma cells (low MGMT level) in in vitro colony formation assays were treated with different dosing schedules of TMZ. In brief, sub-confluent plates containing cells (DAOY, A375, or LOX) were trypsinized, then rinsed and suspended in appropriate culture medium before seeding in 6-well plates. Cells were incubated for 18-24 hours at 37° C. to allow cells to attach. Graded concentrations of TMZ or equivalent volumes of diluents were added in triplicate. Each pulse of TMZ lasted for 24 hours. For example, cells receiving continuous daily dosing of TMZ were treated with TMZ-containing medium every 24 hours throughout the cycle. Following the last pulse of TMZ in a cycle, TMZ-containing medium was removed and replaced with fresh medium without TMZ for the rest of the incubation period. Resulting colonies were stained with Crystal Violet solution and quantified using ImagePro plus software (Empire Imaging Systems, Inc. Asbury, N.J.).

[2] = tested on: A375 human melanoma cells (high MGMT level); assay: Colony formation assay, A375 cells; format: cell-based; details: 4-day cycle
Experimental: as §1

[3] = tested on: LOX human melanoma cells (low MGMT level); assay: Colony formation assay, LOX cells; format: cell-based
Experimental: as §1
In the 4-day cycle, illustrated in FIG. 3A, TMZ was administered according to one of two different dosing schedules: (i) continuous daily dosing (Day 1-4); or (ii) single pulse dosing (Day 1); where the total amount of TMZ administered was 0, 16, 31, 62, or 124 μg.
In the 8-day cycle, illustrated in FIG. 3B, TMZ was administered according to one of three different dosing schedules: (i) continuous daily dosing (Day 1-8); (ii) dosing for 2 consecutive days (Day 1-2); or (ii) intermittent dosing for 2 days (Day 1, Day 5); where the total amount of TMZ administered was 0, 31, 62, 124, or 248 μg.

[4] = tested on: DAOY human glioma xenograft tumors; assay: DAOY human glioma xenograft tumor model; format: in vivo, nude mice; details: two 15-day cycles
Experimental: (§2) In brief, female athymic nude mice or female SCID mice (4-6 week old) from Charles River Laboratories were maintained in a VAF-barrier facility. Animal procedures were performed in accordance with the rules set forth in the N.I.H. guide for the care and use of laboratory animals.
(§3) DAOY human glioma cells (5×10^6), LOX human melanoma cells (5×10^5), and A375 human melanoma cells (5×10^6) were inoculated subcutaneously in the right flank of the animal (LOX in SCID mice; DAOY and A375 in nude mice). To facilitate in vivo growth, Matrigel was mixed with DAOY and A375 cells (50%) before inoculation. When tumor volumes were approximately 100 mm^3, animals were randomized and grouped (n=10). Tumor volumes and body weight were measured twice weekly using Labcat™ computer application (Innovative Programing Associates, N.J.). Tumor volumes were calculated by the formula (W×L×H)×π×⅙.
(§4) TMZ was administered by intraperitoneal injections with 20% HPβCD (containing 1% DMSO) as vehicle. Mice bearing xenograft tumors of DAOY human glioma cells, a high MGMT level cell line, were treated with one of three different dosing schedules. In a 15-day cycle, under same total dose levels, mice received one of the following TMZ treatments: (i) day 1 through day 15; (ii) day 1 through day 5; or (iii) intermittently on day 1, 4, 7, 10, and 13. For all dosing schedules, three different dose levels (180, 270, and 405 mg/kg total) were used.
FIG. 5A illustrates the mean tumor growth curves of DAOY human glioma xenograft tumors following TMZ treatment for two consecutive 15-day cycles of continuous daily dosing (Day 1-15 (first cycle), Day 16-30 (second cycle)); where the total dose of TMZ administered was 0, 360, 540, or 810 mg per kg (mpk). FIG. 5B illustrates the mean tumor growth curves of DAOY human glioma xenograft tumors following TMZ treatment for two consecutive 15-day cycles of dosing for 5 consecutive days (Day 1-5 (first cycle); Day 16-20 (second cycle)); where the total dose of TMZ administered was 0, 360, 540, or 810 mpk. FIG. 5C illustrates mean tumor growth curves of DAOY human glioma xenograft tumors following TMZ treatment for two consecutive 15-day cycles of intermittent dosing for 5 days (Day 1, 4, 7, 10, 13 (first cycle); Day 16, 19, 22, 25, 28 (second cycle)); where the total dose of TMZ administered was 0, 360, 540, or 810 mpk.

[5] = tested on: A375 human melanoma xenograft tumors; assay: A375 human melanoma xenograft tumor model; format: in vivo, nude mice; details: 15-day cycle
Experimental: as §2, §3, §4
as §4, with “Mice” for “TMZ was administered by intraperitoneal injections with 20% HPβCD (containing 1% DMSO) as vehicle. Mice”, “A375” for “DAOY”, “melanoma” for “glioma”, “with” for “with one of”, “Similar to the schedules used for the DAOY model, in” for “In”

[6] = tested on: LOX human melanoma xenograft tumors; assay: LOX human melanoma xenograft tumor model; format: in vivo, SCID mice; details: for % Inhibition compared to tumor treated with vehicle: 12-day cycle; for TGI: SCID mice, intermediate dose 72 mg/kg total
Experimental: as §2, §3, §4
Mice bearing xenograft tumors of LOX human melanoma cells, a low MGMT level cell line, were treated with TMZ using two different schedules. The same total dose was administered evenly divided over the course of either: (i) 4 or (ii) 12 days. TMZ was administered through intraperitoneal injection using cumulative total dose levels of 36, 72 or 144 mg/kg.
The efficacy of TMZ was schedule dependent, with greater efficacy seen when dosing for 4 consecutive days.

Which “% Inhibition compared to untreated cells” value ([1]; continuous daily dosing Day 1-4 (¼ total TMZ/day), total TMZ 93 μg) does the source give for Cn1nnc2c(C(N)=O)ncn2c1=O [TMZ, 3,4-dihydro-3-methyl-4-oxoimidazo[5,1-d]-as-tetrazine-8-carboxamide] here?
Its value is −8%.

And the “% Inhibition compared to untreated cells” value ([1]; single pulse dosing Day 1, total TMZ 93 μg)?
Its value is −37%.

What about the “% Inhibition compared to untreated cells” value ([1]; single pulse dosing Day 1, total TMZ 186 μg) of the same molecule?
Its value is 20%.

What about the “% Inhibition compared to untreated cells” value ([1]; single pulse dosing Day 1, total TMZ 373 μg) of the same molecule?
Its value is 75%.

And the “% Inhibition compared to untreated cells” value ([2]; continuous daily dosing Day 1-4 (¼ total TMZ/day), total TMZ 62 μg)?
The value was 17.4%.

What about the “% Inhibition compared to untreated cells” value ([2]; single pulse dosing Day 1, total TMZ 62 μg) of the same molecule?
The value was 76%.

And the “% Inhibition compared to untreated cells” value ([2]; single pulse dosing Day 1, total TMZ 124 μg)?
Its value is 88%.

And the “% Inhibition compared to untreated cells” value ([2]; single pulse dosing Day 1, total TMZ 249 μg)?
The value was 96%.

What about the “% Inhibition compared to untreated cells” value ([3]; 4-day cycle, continuous daily dosing Day 1-4 (¼ total TMZ/day), total TMZ 16 μg) of the same molecule?
Its value is 7%.

And the “% Inhibition compared to untreated cells” value ([3]; 4-day cycle, single pulse dosing Day 1, total TMZ 16 μg)?
The value was 66%.

What about the “% Inhibition compared to untreated cells” value ([3]; 4-day cycle, single pulse dosing Day 1, total TMZ 31 μg) of the same molecule?
Its value is 87%.

What about the “% Inhibition compared to untreated cells” value ([3]; 4-day cycle, single pulse dosing Day 1, total TMZ 62 μg) of the same molecule?
The value was 84%.

And the “% Inhibition compared to untreated cells” value ([3]; 8-day cycle, continuous daily dosing Day 1-8 (⅛ total TMZ/day), total TMZ 31 μg)?
The value was −5%.

And the “% Inhibition compared to untreated cells” value ([3]; 8-day cycle, dosing for 2 consecutive days Day 1, Day 2 (½ total TMZ/day), total TMZ 31 μg)?
The value was 45%.

And the “% Inhibition compared to untreated cells” value ([3]; 8-day cycle, dosing for 2 consecutive days Day 1, Day 2 (½ total TMZ/day), total TMZ 62 μg)?
The value was 92%.

And the “% Inhibition compared to untreated cells” value ([3]; 8-day cycle, dosing for 2 consecutive days Day 1, Day 2 (½ total TMZ/day), total TMZ 124 μg)?
The value was 98%.

And the “% Inhibition compared to untreated cells” value ([3]; 8-day cycle, intermittent dosing for 2 days Day 1, Day 5 (½ total TMZ/day), total TMZ 31 μg)?
The value was 78%.

And the “% Inhibition compared to untreated cells” value ([3]; 8-day cycle, intermittent dosing for 2 days Day 1, Day 5 (½ total TMZ/day), total TMZ 62 μg)?
Its value is 98%.

And the “% Inhibition compared to untreated cells” value ([3]; 8-day cycle, intermittent dosing for 2 days Day 1, Day 5 (½ total TMZ/day), total TMZ 124 μg)?
The value was 99%.

What about the “% Inhibition compared to tumor treated with vehicle” value (“% Inhibition … with vehicle” below) ([4]; continuous dosing Day 1-30, 12 mpk per pulse, total 360 mpk, dose intensity 1, i.p.) of the same molecule?
The value was 66%.

What about the “% Inhibition … with vehicle” value ([4]; dosing for 5 consecutive days Day 1-5, Day 16-20, 54 mpk per pulse, total 540 mpk, dose intensity 1.5, i.p.) of the same molecule?
The value was 118%.

And the “% Inhibition … with vehicle” value ([4]; dosing for 5 consecutive days Day 1-5, Day 16-20, 81 mpk per pulse, total 810 mpk, dose intensity 2.25, i.p.)?
Its value is 124%.

And the “% Inhibition … with vehicle” value ([4]; intermittent dosing Day 1, 4, 7, 10, 13, 16, 19, 22, 25, 28, 54 mpk per pulse, total 540 mpk, dose intensity 1.5, i.p.)?
Its value is 85%.

And the “% Inhibition … with vehicle” value ([4]; intermittent dosing Day 1, 4, 7, 10, 13, 16, 19, 22, 25, 28, 81 mpk per pulse, total 810 mpk, dose intensity 2.25, i.p.)?
Its value is 117%.

What about the “% Inhibition … with vehicle” value ([5]; continuous daily dosing Day 1-15, 12 mpk per pulse, total 180 mpk, dose intensity 1, i.p.) of the same molecule?
Its value is 34%.

And the “% Inhibition … with vehicle” value ([5]; dosing for 5 consecutive days Day 1-5, 54 mpk per pulse, total 270 mpk, dose intensity 1.5, i.p.)?
The value was 29%.

What about the “% Inhibition … with vehicle” value ([5]; dosing for 5 consecutive days Day 1-5, 81 mpk per pulse, total 405 mpk, dose intensity 2.25, i.p.) of the same molecule?
The value was 68%.

And the “% Inhibition … with vehicle” value ([5]; intermittent dosing Day 1, 4, 7, 10, 13, 54 mpk per pulse, total 270 mpk, dose intensity 1.5, i.p.)?
Its value is 58%.

And the “% Inhibition … with vehicle” value ([5]; intermittent dosing Day 1, 4, 7, 10, 13, 81 mpk per pulse, total 405 mpk, dose intensity 2.25, i.p.)?
Its value is 73%.

What about the “% Inhibition … with vehicle” value ([6]; continuous daily dosing Day 1-12, 3 mpk per pulse, total 36 mpk, dose intensity 1, i.p.) of the same molecule?
The value was 37%.

And the “% Inhibition … with vehicle” value ([6]; dosing for 4 consecutive days Day 1-4, 18 mpk per pulse, total 72 mpk, dose intensity 2, i.p.)?
Its value is 88%.

And the “% Inhibition … with vehicle” value ([6]; dosing for 4 consecutive days Day 1-4, 36 mpk per pulse, total 144 mpk, dose intensity 4, i.p.)?
Its value is 94%.

What about the TGI ([6]; 4-day treatment schedule) of the same molecule?
The TGI was 88%.

And the TGI ([6]; 12-day schedule)?
The TGI was 50%.
